pIC50: −log10 of the molar value.

The target of the test is recombinant human TYRO3 (Homo sapiens (Human), UniProt Q06418). The test is described as follows: TYRO3 enzymatic assay (radiometric [32P]-ATP, Poly(Glu,Tyr) substrate). The settings on record: recombinant human TYRO3, [32P]-ATP. The test is classed as biochemical. The procedure: Poly(Glu, Tyr) sodium salt (Glu:Tyr (4:1), quality level 200, molecular weight 5,000-20,000, obtained from Sigma Aldrich, catalogue #P7244, assay concentration 0.20 mg/mL) and recombinant human TYRO3 (obtained from ThermoFisher Scientific, catalogue #PV3828, assay concentration 2 nM) were mixed in assay buffer (20 mM Hepes pH 7.5, 10 mM MgCl2, 1 mM EGTA, 0.02% Brij35, 0.02 mg/ml BSA, 0.1 mM Na3VO4, 2 mM DTT, 1% DMSO, with added MnCl2 at a final concentration of 2 mM). Compounds of interest (in DMSO, serial 3-fold dilution from 10 μM to 0.5 nM) or control (1% DMSO) were dispensed into the kinase reaction mixture by Acoustic technology (Echo550; nanoliter range). After incubation at room temperature for 20 minutes, the kinase reaction was initiated by addition of [^32P]-ATP (Specific activity 10 μCi/μl) and the mixture was incubated at room temperature for 2 hours. The reaction was then stopped by spotting the reaction mixture on strips of phosphocellulose P81 paper. Following washing, the radioactivity of the P81 paper was measured and kinase activity data were expressed as the percent remaining kinase activity in test samples compared to vehicle (dimethyl sulfoxide) reactions. IC50 values and curve fits were obtained using Prism (GraphPad Software).
Chain of recombinant human TYRO3 (Q06418 41-890): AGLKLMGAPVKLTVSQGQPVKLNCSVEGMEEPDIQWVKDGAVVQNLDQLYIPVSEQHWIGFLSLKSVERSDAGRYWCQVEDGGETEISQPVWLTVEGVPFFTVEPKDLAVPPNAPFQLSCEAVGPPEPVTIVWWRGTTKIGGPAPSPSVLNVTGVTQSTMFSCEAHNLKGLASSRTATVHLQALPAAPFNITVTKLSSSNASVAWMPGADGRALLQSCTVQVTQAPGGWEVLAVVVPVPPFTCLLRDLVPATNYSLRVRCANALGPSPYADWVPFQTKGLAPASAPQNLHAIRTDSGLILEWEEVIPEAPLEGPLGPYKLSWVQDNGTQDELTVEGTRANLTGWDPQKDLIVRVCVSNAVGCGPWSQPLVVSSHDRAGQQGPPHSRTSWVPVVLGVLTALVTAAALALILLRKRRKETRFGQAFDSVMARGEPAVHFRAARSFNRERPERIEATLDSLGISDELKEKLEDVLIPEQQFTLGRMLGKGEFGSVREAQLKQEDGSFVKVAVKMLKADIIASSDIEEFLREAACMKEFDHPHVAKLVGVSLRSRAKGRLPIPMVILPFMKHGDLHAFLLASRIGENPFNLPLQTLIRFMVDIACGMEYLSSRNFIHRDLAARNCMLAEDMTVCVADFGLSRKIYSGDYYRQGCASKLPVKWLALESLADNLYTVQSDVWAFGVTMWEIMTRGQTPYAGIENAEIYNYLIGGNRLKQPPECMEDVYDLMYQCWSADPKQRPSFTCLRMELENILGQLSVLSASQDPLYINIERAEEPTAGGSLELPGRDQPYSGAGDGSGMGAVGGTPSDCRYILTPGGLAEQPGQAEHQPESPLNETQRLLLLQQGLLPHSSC

On to `COc1ccc(-c2c[nH]c3ncc(-c4ccc(CN5CCCC(O)C5)cc4)cc23)cn1` (single isomer, unassigned; enantiomer 1) [compound 26, 1-(4-(3-(6-methoxypyridin-3-yl)-1H-pyrrolo[2,3-b]pyridin-5-yl)benzyl)piperidin-3-ol Enantiomer 1], for which the pIC50 is above 7.29.
Take `COc1ccc(-c2c[nH]c3ncc(-c4ccc(CN5CCCC(OC)C5)cc4)cc23)cn1` (single isomer, unassigned; enantiomer 1) [compound 38, 5-(4-((3-methoxypiperidin-1-yl)methyl)phenyl)-3-(6-methoxypyridin-3-yl)-1H-pyrrolo[2,3-b]pyridine Enantiomer 1]: the pIC50 was 6.30 to 6.82.
Then `OCc1[nH]c2ncc(-c3ccc(CN4CCCC(O)C4)cc3)cc2c1-c1cccc(F)c1` (single isomer, unassigned; enantiomer 1) [compound 88, 1-(4-(3-(3-fluorophenyl)-2-(hydroxymethyl)-1H-pyrrolo[2,3-b]pyridin-5-yl)benzyl)piperidin-3-ol Enantiomer 1], with 6.30 to 6.82; and `COc1ccc(-c2c[nH]c3ncc(-c4ccc(CN5CCCC(O)C5)cc4)cc23)cn1` (single isomer, unassigned; enantiomer 2) [compound 27, 1-(4-(3-(6-methoxypyridin-3-yl)-1H-pyrrolo[2,3-b]pyridin-5-yl)benzyl)piperidin-3-ol Enantiomer 2], with 6.82 to 7.29.
`OCc1[nH]c2ncc(-c3ccc(CN4CCCC(O)C4)cc3)cc2c1-c1cccc(F)c1` (single isomer, unassigned; enantiomer 2) [compound 89, 1-(4-(3-(3-fluorophenyl)-2-(hydroxymethyl)-1H-pyrrolo[2,3-b]pyridin-5-yl)benzyl)piperidin-3-ol Enantiomer 2]: the pIC50 is 6.82 to 7.29.
Consider `Cc1ccc(-c2c[nH]c3ncc(-c4ccc(CN5CCCC(O)C5)cc4)cc23)cc1` (stereo not shown) [compound 1, 1-(4-(3-(p-tolyl)-1H-pyrrolo[2,3-b]pyridin-5-yl)benzyl)piperidin-3-ol], for which the pIC50 is 6.82 to 7.29.
Take `OC1CCCN(Cc2ccc(-c3cnc4[nH]cc(-c5ccc(F)cc5)c4c3)cc2)C1` (stereo not shown) [compound 3, 1-(4-(3-(4-fluorophenyl)-1H-pyrrolo[2,3-b]pyridin-5-yl)benzyl)piperidin-3-ol]: the pIC50 was 6.82 to 7.29.
As for `CC1(O)CCCN(Cc2ccc(-c3cnc4[nH]cc(-c5cccc(F)c5)c4c3)cc2)C1` (stereo not shown) [compound 5, 1-(4-(3-(3-fluorophenyl)-1H-pyrrolo[2,3-b]pyridin-5-yl)benzyl)-3-methylpiperidin-3-ol], the pIC50 was 6.82 to 7.29.
For the compound `Fc1cccc(-c2c[nH]c3ncc(-c4ccc(CN5C[C@@H]6C[C@H]5CO6)cc4)cc23)c1` [compound 6, (1S,4S)-5-(4-(3-(3-fluorophenyl)-1H-pyrrolo[2,3-b]pyridin-5-yl)benzyl)-2-oxa-5-azabicyclo[2.2.1]heptane], the pIC50 was 6.82 to 7.29.
Turning to `OC1CCCN(Cc2ccc(-c3cnc4[nH]cc(-c5ccc(Cl)cc5)c4c3)cc2)C1` (stereo not shown) [compound 7, 1-(4-(3-(4-chlorophenyl)-1H-pyrrolo[2,3-b]pyridin-5-yl)benzyl)piperidin-3-ol], the pIC50 is 6.82 to 7.29.
Regarding `OC1CCCN(Cc2ccc(-c3cnc4[nH]cc(-c5cccc(Cl)c5)c4c3)cc2)C1` (stereo not shown) [compound 8, 1-(4-(3-(3-chlorophenyl)-1H-pyrrolo[2,3-b]pyridin-5-yl)benzyl)piperidin-3-ol], the pIC50 is 6.82 to 7.29.
The same measure for `OC1CCCN(Cc2ccc(-c3cnc4[nH]cc(-c5ccc(C(F)(F)F)cc5)c4c3)cc2)C1` (stereo not shown) [compound 10, 1-(4-(3-(4-(trifluoromethyl)phenyl)-1H-pyrrolo[2,3-b]pyridin-5-yl)benzyl)piperidin-3-ol]: 6.30 to 6.82.
Turning to `OC1CCCN(Cc2ccc(-c3cnc4[nH]cc(-c5cccc(C(F)(F)F)c5)c4c3)cc2)C1` (stereo not shown) [compound 11, 1-(4-(3-(3-(trifluoromethyl)phenyl)-1H-pyrrolo[2,3-b]pyridin-5-yl)benzyl)piperidin-3-ol], the negative-log IC50 (pIC50) is 6.82 to 7.29.
Regarding `CC(C)Oc1ccc(-c2c[nH]c3ncc(-c4ccc(CN5CCCC(O)C5)cc4)cc23)cc1C#N` (stereo not shown) [compound 19, 5-(5-(4-((3-hydroxypiperidin-1-yl)methyl)phenyl)-1H-pyrrolo[2,3-b]pyridin-3-yl)-2-isopropoxybenzonitrile], the pIC50 is 6.82 to 7.29.
Take `Cc1ccc(-c2c[nH]c3ncc(-c4ccc(CN5CCCC(O)C5)cc4)cc23)cn1` (stereo not shown) [compound 20, 1-(4-(3-(6-methylpyridin-3-yl)-1H-pyrrolo[2,3-b]pyridin-5-yl)benzyl)piperidin-3-ol]: the pIC50 is 6.82 to 7.29.
Regarding `OC1CCCN(Cc2ccc(-c3cnc4[nH]cc(-c5ccc(F)nc5)c4c3)cc2)C1` (stereo not shown) [compound 21, 1-(4-(3-(6-fluoropyridin-3-yl)-1H-pyrrolo[2,3-b]pyridin-5-yl)benzyl)piperidin-3-ol], the negative-log IC50 (pIC50) is 6.82 to 7.29.
Regarding `OC1CCCN(Cc2ccc(-c3cnc4[nH]cc(-c5cncc(F)c5)c4c3)cc2)C1` (stereo not shown) [compound 22, 1-(4-(3-(5-fluoropyridin-3-yl)-1H-pyrrolo[2,3-b]pyridin-5-yl)benzyl)piperidin-3-ol], the pIC50 is 6.82 to 7.29.
As for `OC1CCCN(Cc2ccc(-c3cnc4[nH]cc(-c5ccc(C(F)(F)F)nc5)c4c3)cc2)C1` (stereo not shown) [compound 24, 1-(4-(3-(6-(trifluoromethyl)pyridin-3-yl)-1H-pyrrolo[2,3-b]pyridin-5-yl)benzyl)piperidin-3-ol], the negative-log IC50 (pIC50) is 6.82 to 7.29.
The same measure for `COc1ccc(-c2c[nH]c3ncc(-c4ccc(CN5CCC(O)CC5)cc4)cc23)cn1` [compound 28, 1-(4-(3-(6-methoxypyridin-3-yl)-1H-pyrrolo[2,3-b]pyridin-5-yl)benzyl)piperidin-4-ol]: 6.30 to 6.82.
For the compound `COc1ccc(-c2c[nH]c3ncc(-c4ccc(CN5CCC(O)C5)cc4)cc23)cn1` (stereo not shown) [compound 29, 1-(4-(3-(6-methoxypyridin-3-yl)-1H-pyrrolo[2,3-b]pyridin-5-yl)benzyl)pyrrolidin-3-ol], the negative logarithm of the IC50 (pIC50) is 6.82 to 7.29.
Take `COc1ccc(-c2c[nH]c3ncc(-c4ccc(CN5CCCC(C)(O)C5)cc4)cc23)cn1` (stereo not shown) [compound 30, 1-(4-(3-(6-methoxypyridin-3-yl)-1H-pyrrolo[2,3-b]pyridin-5-yl)benzyl)-3-methylpiperidin-3-ol]: the pIC50 is 6.82 to 7.29.
For the compound `COc1ccc(-c2c[nH]c3ncc(-c4ccc(CN5CCCC(CO)C5)cc4)cc23)cn1` (stereo not shown) [compound 32, (1-(4-(3-(6-methoxypyridin-3-yl)-1H-pyrrolo[2,3-b]pyridin-5-yl)benzyl)piperidin-3-yl)methanol], the pIC50 is 6.82 to 7.29.
Regarding `COc1ccc(-c2c[nH]c3ncc(-c4ccc(CN5CCC(OC)CC5)cc4)cc23)cn1` [compound 34, 5-(4-((4-methoxypiperidin-1-yl)methyl)phenyl)-3-(6-methoxypyridin-3-yl)-1H-pyrrolo[2,3-b]pyridine], the pIC50 is 6.82 to 7.29.
Then `COc1ccc(-c2c[nH]c3ncc(-c4ccc(CN5CC(OC)C5)cc4)cc23)cn1` [compound 35, 5-(4-((3-methoxyazetidin-1-yl)methyl)phenyl)-3-(6-methoxypyridin-3-yl)-1H-pyrrolo[2,3-b]pyridine], with 6.82 to 7.29; and `CCOC1CN(Cc2ccc(-c3cnc4[nH]cc(-c5ccc(OC)nc5)c4c3)cc2)C1` [compound 36, 5-(4-((3-ethoxyazetidin-1-yl)methyl)phenyl)-3-(6-methoxypyridin-3-yl)-1H-pyrrolo[2,3-b]pyridine], with 6.30 to 6.82.

One may read the pIC50 as the negative decadic logarithm of the IC50, by convention in mol/L.

(Values after patent US20240425499A1, “TYRO3 INHIBITORS” (HALIA THERAPEUTICS, INC., priority 2021, published 2024).)
